Data published in publication PMC8270301, “Novel Facet of an Old Dietary Molecule? Direct Influence of Caffeine on Glucose and Biogenic Amine Handling by Human Adipocytes” (Molecules, 2021).

Experiments:
[1] = target: T1, primary amine oxidase (SSAO/PrAO/VAP-1) (Homo sapiens, UniProt Q16853); test: Amplex Red hydrogen peroxide release in tissue homogenate, Lineweaver-Burk plot; format: cell-based
T1 construct: gene AOC3; native enzyme in homogenates of human subcutaneous adipose tissue
T1 sequence (Q16853 1-763): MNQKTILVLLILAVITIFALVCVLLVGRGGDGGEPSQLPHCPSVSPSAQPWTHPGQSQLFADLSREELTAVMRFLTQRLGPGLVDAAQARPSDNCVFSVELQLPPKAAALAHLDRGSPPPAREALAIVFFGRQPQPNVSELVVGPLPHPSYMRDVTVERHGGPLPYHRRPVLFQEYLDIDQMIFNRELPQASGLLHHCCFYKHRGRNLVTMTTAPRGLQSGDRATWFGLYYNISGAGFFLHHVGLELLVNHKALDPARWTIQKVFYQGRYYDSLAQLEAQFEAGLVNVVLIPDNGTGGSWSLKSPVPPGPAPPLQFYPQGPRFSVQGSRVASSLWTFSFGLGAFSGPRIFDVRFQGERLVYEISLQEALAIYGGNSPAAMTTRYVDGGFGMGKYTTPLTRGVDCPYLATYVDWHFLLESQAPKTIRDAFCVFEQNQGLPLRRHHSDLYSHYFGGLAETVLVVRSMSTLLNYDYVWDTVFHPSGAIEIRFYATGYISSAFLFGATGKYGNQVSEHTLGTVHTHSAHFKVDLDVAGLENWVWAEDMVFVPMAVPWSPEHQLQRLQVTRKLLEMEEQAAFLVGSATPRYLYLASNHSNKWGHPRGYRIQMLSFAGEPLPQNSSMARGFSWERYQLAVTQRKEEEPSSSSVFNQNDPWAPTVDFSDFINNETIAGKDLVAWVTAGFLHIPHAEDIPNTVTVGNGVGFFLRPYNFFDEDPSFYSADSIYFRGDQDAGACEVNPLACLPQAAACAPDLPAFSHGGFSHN

[2] = target: T1, primary amine oxidase (SSAO/PrAO/VAP-1); test: Amplex Red hydrogen peroxide assay of benzylamine oxidation in tissue homogenate, Lineweaver-Burk analysis; format: biochemical

| Compound | Amplex Red hydrogen peroxide release in tissue homogenate, Lineweaver-Burk plot [1] | Ki [2] [µM] |
| --- | --- | --- |
| NCc1ccccc1 [benzylamine] | Lineweaver–Burk plot of the inhibition of benzylamine oxidation by increasing doses of caffeine | – |
| Cn1c(=O)c2c(ncn2C)n(C)c1=O [caffeine, 1,3,7-trimethylxanthine] | – | 880 |
